# Source: US9139638B2, “Mouse model of cholinergic dysfunction to evaluate cognitive enhancers and drugs that improve myasthenia” (priority 2006, dated 2015)
# Test system: VAChT KD^HOM mice
# Assay: Grip force test in VAChT KD^HOM mice
# Format: in vivo
# Conditions: pyridostigmine i.p. 1 mg/kg, 30 min prior to the test, FIG. 4B, p<0.05
# Description: To evaluate whether the alterations detected in neuromuscular transmission may affect neuromuscular function, we tested the performance of wild-type and mutant mice in motor tasks (FIG. 4). The wire-hang experiments were conducted as described (Sango et al. (1996) Mice lacking both subunits of lysosomal beta-hexosaminidase display gangliosidosis and mucopolysaccharidosis. Nat. Genet. 14:348-352) and time spent hanging upside down was determined with a cut-off time of 60 sec.
# To measure grip force, we used a custom built force transducer connected to a small support that could be grasped by the mouse as described (Fowler et al. (2002) Motor and associative deficits in D2 dopamine receptor knockout mice. Int. J. Dev. Neurosci. 20:309-321). Five tests were performed per mouse with a maximum period of 50 sec for each animal over two different days. The force transducer was coupled to a computer and a routine was developed to record the maximal grip-force exerted. By comparison, VAChT KD^HET mice present no deficit in neuromuscular function as assessed in this test. Importantly, reduced grip-strength in VAChT KD^HOM mice was improved by prior injection of one of three cholinesterase inhibitors: pyridostigmine (i.p. 1 mg/kg), galantamine (s.c. 1 mg/kg) or physostigmine (i.p., 0.3 mg/kg), (FIG. 4B, F(3,47)=8.323 p<0.05). […]
smiles,measurement,value
CN(C)C(=O)Oc1ccc[n+](C)c1 [pyridostigmine],grip-strength (maximal grip-force),improved
